Experimental data taken from patent US8906919B2, “Treatment of non-neuronal and non-myocardial cell, tissue and organ damage and associated pain with persistent sodium current blockers” (Ozteo Pty Ltd, priority 2009, dated 2014).
Like-named read-outs stand apart in the source and are kept apart here.

Experiments:
[1] = system: kidney tissue; conditions: rat; for kidney glutathione levels compared with non-treated reperfused group: 3 h ischaemia and 45 min reperfusion (FIG. 9)
Description: (§1) Additional studies were performed on kidney tissue in 48 isoflurane-anaesthetised, male Wistar albino rats (300-350 g). […] A further ten minutes was allowed for drug circulation prior to the induction of ischaemia. Tissue ischaemia was produced in all animals by occluding the renal artery to the left kidney. Immediately prior to occlusion, a 1,000 unit bolus of IV heparin was injected to prevent blood clotting and to permit reperfusion. Occlusion was maintained for 3 hours following which, in 6 animals in each group, the occlusion was released and reperfusion of the kidney was allowed. Samples of reperfused tissue were excised 45 minutes following reperfusion. Samples of non-reperfused ischaemic tissue were excised 3 hours post occlusion. Samples of ischaemic tissue and of reperfused tissue were taken from different animals. Samples of non-ischaemic, non-treated tissue were excised from the right kidney of the non-treated group.
Persistent sodium current blockade was evaluated for its effect on kidney tissue glutathione levels during ischaemia and reperfusion.

[2] = system: kidney tissue; conditions: rat, iv before ischaemia (riluzole 5 mg/kg, lidocaine 1 mg/kg, lamotrigine 20 mg/kg)
Description: as §1
In addition, persistent sodium current blockade was assessed for its affect on kidney tissue DNA fragmentation during ischaemia and reperfusion. […] All panels were illuminated by light with wavelength around 520 nm to show DNA fragmentation.

[3] = iv before ischaemia (riluzole 5 mg/kg, lidocaine 1 mg/kg, lamotrigine 20 mg/kg)
[4] = 3 hours of ischaemia and 45 minutes of reperfusion (FIG. 10)
[5] = 3 hours of ischaemia and no reperfusion (FIG. 10)

Nc1nnc(-c2cccc(Cl)c2Cl)c(N)n1 [lamotrigine]
kidney glutathione levels compared with non-treated reperfused group [1, 3]: substantially higher
damaged nuclei (DNA fragmentation) in renal tubules compared with non-treated tissue [2, 4]: the reduction in damaged nuclei is still significant
damaged nuclei (DNA fragmentation) in renal tubules compared with non-treated tissue [2, 5]: the reduction in damaged nuclei is still significant

CCN(CC)CC(=O)Nc1c(C)cccc1C [lidocaine]
kidney glutathione levels compared with non-treated, non-ischaemic and non-reperfused group ([1]; iv before ischaemia (riluzole 5 mg/kg, lidocaine 1 mg/kg), 3 h ischaemia and 45 min reperfusion (FIG. 9, vs 901)): not significantly different
kidney glutathione levels compared with non-treated reperfused group [1, 3]: significantly higher
kidney glutathione levels after ischaemia ([1]; iv before ischaemia (riluzole 5 mg/kg, lidocaine 1 mg/kg, lamotrigine 20 mg/kg), 3 h renal artery occlusion, no reperfusion (FIG. 8)): not significantly reduced
damaged nuclei (DNA fragmentation) in renal tubules compared with non-treated tissue [2, 4]: considerably fewer damaged nuclei
damaged nuclei (DNA fragmentation) in renal tubules compared with non-treated tissue [2, 5]: considerably fewer damaged nuclei
